The source made the active and inactive calls. No cut-off for these calls is given here.
Tests used:
[1] = Inhibition of hemagglutininin-tagged HIV1 Rev protein nuclear export in human HeLa cells assessed as protein localization after 12 hrs by indirect fluorescent antibody technique; format: cell-based, Human immunodeficiency virus 1
HeLa = experiment: Inhibition of hemagglutininin-tagged HIV1 Rev protein nuclear export in human HeLa cells assessed as protein localization at 10 uM after 12 hrs by indirect fluorescent antibody technique; format: cell-based; conditions: Human immunodeficiency virus 1

IC50 [1] [µM]	SMILES	inhibition (HeLa)
2.5	CC(=O)OCC1=CO[C@@H](OC(=O)CC(C)C)[C@H]2C1=C[C@H](OC(=O)CC(C)C)[C@]21CO1 [VALTRATE]	
4.4	CC(=O)OCC1=CO[C@@H](OC(=O)CC(C)C)[C@H]2[C@@H]1C[C@H](OC(=O)CC(C)C)[C@]21CO1	Active

From ChEMBL document CHEMBL1156329, “Bioisostere of valtrate, anti-HIV principle by inhibition for nuclear export of Rev” (Bioorg Med Chem Lett, 2010)
